Experiment: wn = mass fraction of the nth substance listed
Conditions: 101 kPa, Liquid; for speed of sound: Sing-around technique in a fixed-path interferometer

CCCO [propan-1-ol] + O
Conditions	mass density, 283.15 K [kg/m3]	mass density, 288.15 K [kg/m3]	mass density, 293.15 K [kg/m3]	mass density, 298.15 K [kg/m3]	mass density, 303.15 K [kg/m3]	speed of sound, 283.15 K [m/s]	speed of sound, 288.15 K [m/s]	speed of sound, 293.15 K [m/s]	speed of sound, 298.15 K [m/s]	speed of sound, 303.15 K [m/s]
w1 = 0.05	992.444	991.727	990.715	989.431	987.905	1501.2	1514.5	1526.2	1536.2	1544.7
w1 = 0.1	987.274	986.285	985.011	983.475	981.701	1547.4	1555.6	1562.4	1568	1572.2
w1 = 0.15	983.045	981.663	980.011	978.117	976.004	1584	1586.5	1588.1	1588.6	1588.1

From the NIST ThermoML archive (doi:10.1016/j.fluid.2007.07.066)
